# Experiment: Stability of the product during purification (sensitivity to methanol)
# Type: physicochemical
# Conditions: particularly at a pH below 6
structure (smiles),measurement,value
CC=C(C)C=C(C)C1C(C)=CC2(C)CC(C)CCC2C1C(=O)C1=CC(O)(Cc2ccccc2)C(=O)N1 (stereo not shown) [Structural Formula I],instability of the product / sensitivity to methanol,sensitivity to methanol particularly at a pH below 6

# From patent publication US5352800A, “Process for the production of a novel endothelin antagonist” (Merck & Co., Inc., priority 1993, dated 1994)
